The results in this text go back to publication PMC5974765, “Targets Fishing and Identification of Calenduloside E as Hsp90AB1: Design, Synthesis, and Evaluation of Clickable Activity-Based Probe” (Frontiers in Pharmacology, 2018).

In assay [1] the target is T1, Hsp90AB1 (Homo sapiens, UniProt P08238).
T1 construct: recombinant human Hsp90AB1 protein
In words: SPR (Biacore, CM5 chip with immobilized protein); also competes with CE-P in HUVEC lysate pull-down. The format is binding.

The target in assay [2] is T1, Hsp90AB1. In words: SPR (Biacore, CM5 chip with immobilized protein); also click pull-down of recombinant protein and from HUVEC lysate. Type of assay: binding. In general terms: SPR reads the build-up and loss of mass on a sensor chip optically.

pKd: −log10 of the molar value.

T1 sequence (P08238 2-724): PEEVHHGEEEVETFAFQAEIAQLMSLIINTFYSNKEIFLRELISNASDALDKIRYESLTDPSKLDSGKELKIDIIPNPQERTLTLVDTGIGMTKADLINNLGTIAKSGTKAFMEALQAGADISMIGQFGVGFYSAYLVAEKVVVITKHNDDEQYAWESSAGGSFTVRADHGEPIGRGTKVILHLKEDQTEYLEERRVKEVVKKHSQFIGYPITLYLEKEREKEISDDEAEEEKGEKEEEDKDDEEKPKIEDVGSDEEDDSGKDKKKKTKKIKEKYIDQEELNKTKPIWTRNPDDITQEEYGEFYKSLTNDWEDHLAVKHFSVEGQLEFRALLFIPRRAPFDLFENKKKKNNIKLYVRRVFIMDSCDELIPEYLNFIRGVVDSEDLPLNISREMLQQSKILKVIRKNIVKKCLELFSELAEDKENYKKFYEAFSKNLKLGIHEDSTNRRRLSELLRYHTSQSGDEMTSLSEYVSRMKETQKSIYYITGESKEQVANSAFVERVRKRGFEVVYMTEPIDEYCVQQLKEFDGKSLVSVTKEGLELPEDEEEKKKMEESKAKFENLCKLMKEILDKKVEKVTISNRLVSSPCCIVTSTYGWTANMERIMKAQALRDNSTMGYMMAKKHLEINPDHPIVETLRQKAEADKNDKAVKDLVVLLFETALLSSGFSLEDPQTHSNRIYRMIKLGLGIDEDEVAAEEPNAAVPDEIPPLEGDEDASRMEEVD

For orientation: pKd means −log10 of the Kd, conventionally taken in molar units. `CC1(C)CC[C@]2(C(=O)O)CC[C@]3(C)C(=CC[C@@H]4[C@@]5(C)CC[C@H](O[C@@H]6O[C@H](C(=O)O)[C@@H](O)[C@H](O)[C@H]6O)C(C)(C)[C@@H]5CC[C@]43C)[C@@H]2C1` [CE, Calenduloside E] showed a pKd at Hsp90AB1 [1] of 5.63. In the case of `C#CCNC(=O)C12CCC(C)(C)C[C@H]1C1=CC[C@@H]3[C@@]4(C)CC[C@H](O[C@@H]5O[C@H](C(=O)O)[C@@H](O)[C@H](O)[C@H]5O)C(C)(C)[C@@H]4CC[C@@]3(C)[C@]1(C)CC2` (some centres unmarked) [VI, CE-P], the pKd at Hsp90AB1 [2] was 4.63.
